From patent US8431589B2, “2,4-diaminopyrimidine derivatives” (Novartis AG, priority 2002, dated 2013)
One block for each compound: values may come before it.

Legend:
[1] = target: T1, human Syk protein tyrosine kinase (Homo sapiens, UniProt P43405); assay: Syk kinase assay (heterogenous DELFIA, poly(Glu, Tyr) substrate); format: biochemical; conditions: ATP 1 μM
T1 construct: purchased Upstate Biotechnology, Lake Placid, N.Y
Experimental: (§1) More particularly the compounds of the invention are active at the human ZAP-70, FAK and/or Syk protein tyrosine kinases.
(§2) ZAP-70, Lck and Syk are commercially available from Upstate Biotechnology, Lake Placid, N.Y.
Syk Kinase assay: The activities of the agents of invention are determined in a heterogenous Syk kinase assay based on the dissociation-enhanced lanthanide fluoroimmunoassay (DELFIA) technology. This method utilizes europium chelate-labelled anti-phosphotyrosine antibodies to detect phosphate transfer by Syk to a polymeric glutamic acid-tyrosine (Glu, Tyr) substrate coated onto microtiter plates as described (Braunwalder A F, Yarwood D R, Sills M A, Lipson K E. Measurement of the protein tyrosine kinase activity of c-src using time-resolved fluorometry of europium chelates. Anal. Biochem. 1996; 238(2):159-64). The amount of phosphorylation is then quantified with time-resolved, dissociation-enhanced fluorescence. Briefly, hundred μl of poly (Glu, Tyr) (4:1; 2 μg/ml in phosphate-buffered saline, PBS) are coated to ELISA plates overnight at room temperature. The poly (Glu, Tyr) solution is removed and 250 μl of 1% bovine serum albumin in PBS are added for one hour at room temperature. […] Fluorescence is determined at 615 nm (Victor2; Wallac). […] The inhibition obtained in the presence of test compounds was calculated as percent inhibition of the high control. […]

FAK = target: T2, FAK (Mus musculus, UniProt P34152); assay: Phosphorylation levels of FAK at Tyr397 (sandwich ELISA) in 4T1 cells; format: cell-based; conditions: 1 h incubation, read-out: IC50, 50% reduction of phosphorylation level of FAK (Tyr397)
T2 construct: endogenous in cells; host or cells: mouse mammary carcinoma 4T1 cells
Experimental: Phosphorylation levels of FAK at Tyr397 are quantified by the sandwich ELISA. Mouse mammary carcinoma 4T1 cells (1×10^5) are plated in wells of 96-well culture plates and incubated with or without various concentrations of a compound of formula I for 1 h in Dulbecco's modified eagle medium containing 10% FBS. The medium is removed and cells are lysed in 200 μL 50 mM Tris-HCl, pH 7.4, containing 1% NP-40, 0.25% sodium deoxycholate, 150 mM NaCl, 1 mM EDTA, 1 mM PMSF, 1 mM Na3VO4, 1 mM NaF, 1 μg/mL aprotinin, 1 μg/mL leupeptin and 1 μg/mL pepstatin. After centrifugation, the supernatants are subjected to a sandwich ELISA to quantify the phosphorylated FAK and total FAK. […] After washing with TBSN (20 mM Tris-HCl, pH 8.3, containing 300 mM NaCl, 0.1% SDS and 0.05% NP-40), total FAK is detected with 100 μL of 1 μg/ml anti-FAK polyclonal antibody (#65-6140, Upstate Biology Inc.), and phosphorylated FAK is detected with 100 μL of […] anti-phosphorylated FAK (Y397) antibody (Affinity BioReagents, #OPA1-03071) in BlockAce diluted at 1:10 with H2O. […] Absorbance at 405 nm is measured after 20 min incubation at room temperature. […]

[2] = target: T3, recombinant hexahistidine-tagged human FAK kinase domain (Homo sapiens, UniProt Q05397); assay: FAK assay (FRET, Biot-Y397 substrate); format: biochemical
T3 construct: the kinase domain of FAK (Met384-Gly706) from position 29 to 351; made in house; host or cells: baculovirus; Sf9 and ExpresSF+ insect cells
Experimental: All steps are performed in a 96-well black microtiter plate. Purified recombinant hexahistidine-tagged human FAK kinase domain is diluted with dilution buffer (50 mM HEPES, pH 7.5, 0.01% BSA, 0.05% Tween-20 in water) to a concentration of 94 ng/mL (2.5 nM). The reaction mixture is prepared by mixing 10 μL 5× kinase buffer (250 mM HEPES, pH 7.5, 50 μM Na3VO4, 5 mM DTT, 10 mM MgCl2, 50 mM MnCl2, 0.05% BSA, 0.25% Tween-20 in water), 20 μL water, 5 μL of 4 μM biotinylated peptide substrate (Biot-Y397) in aqueous solution, 5 μL of test compound in DMSO, and 5 μL of recombinant enzyme solution and incubated for 30 min at room temperature. The enzyme reaction is started by addition of 5 μL of 5 μM ATP in water and the mixture is incubated for 3 hours at 37° C. The reaction is terminated by addition of 200 μL of detection mixture (1 nM Eu-PT66, 2.5 μg/mL SA-(SL)APC, 6.25 mM EDTA in dilution buffer), and the FRET signal from europium to allophycocyanin is measured by ARVOsx+L (Perkin Elmer) after 30 min of incubation at room temperature. The ratio of fluorescence intensity of 665 nm to 615 nm is used as a FRET signal for data analysis in order to cancel the colour quenching effect by a test compound. The results are determined as percent inhibition of enzyme activity. […] IC50 values are determined by non-linear curve fit analysis using the OriginPro 6.1 program (OriginLab).

[3] = target: T4, human ZAP-70 protein tyrosine kinase (Homo sapiens, UniProt P43403); assay: ZAP-70 kinase assay (homogenous, time-resolved FRET, LAT-11 substrate); format: biochemical; conditions: 4 μM ATP
T4 construct: purchased Upstate Biotechnology, Lake Placid, N.Y
T4 sequence (P43403 1-619): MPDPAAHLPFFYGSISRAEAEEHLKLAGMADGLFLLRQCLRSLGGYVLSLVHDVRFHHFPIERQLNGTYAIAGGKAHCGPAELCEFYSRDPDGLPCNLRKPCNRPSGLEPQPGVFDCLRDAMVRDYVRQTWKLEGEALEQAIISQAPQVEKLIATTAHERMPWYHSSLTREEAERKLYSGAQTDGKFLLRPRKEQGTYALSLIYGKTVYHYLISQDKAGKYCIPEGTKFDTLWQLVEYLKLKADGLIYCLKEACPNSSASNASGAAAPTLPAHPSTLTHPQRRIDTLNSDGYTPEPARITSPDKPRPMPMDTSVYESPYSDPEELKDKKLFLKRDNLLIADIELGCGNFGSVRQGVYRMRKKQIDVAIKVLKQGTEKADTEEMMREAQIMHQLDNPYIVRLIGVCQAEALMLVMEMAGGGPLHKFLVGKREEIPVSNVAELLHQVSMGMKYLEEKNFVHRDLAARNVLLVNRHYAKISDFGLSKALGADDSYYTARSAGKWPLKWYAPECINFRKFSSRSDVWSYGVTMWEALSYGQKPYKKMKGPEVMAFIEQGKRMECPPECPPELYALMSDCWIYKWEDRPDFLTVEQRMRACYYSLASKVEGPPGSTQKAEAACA
Text: as §1, §2
Preparation of LAT-11 (SEQ ID NO:1): The peptide LAT-11 used as a substrate in the ZAP-70 kinase assay may be prepared as disclosed in Example 1A of WO 02/12275, the contents of which, particularly with reference to Example 1A, is incorporated herein by reference.
ZAP-70 Kinase assay: The activities of the agents of invention are determined in a homogenous ZAP-70 kinase assay based on time-resolved fluorescence resonance energy transfer. Briefly, 80 nM ZAP-70 are incubated with 80 nM Lck and 4 μM ATP in ZAP-70 kinase buffer (20 mM Tris, pH 7.5, 10 μM Na3VO4, 1 mM DTT, 1 mM MnCl2, 0.01% bovine serum albumin, 0.05% Tween 20) for 1 hour at room temperature in a siliconized polypropylene tube. Then, the selective Lck inhibitor PP2 (4-amino-5-(4-chloro-phenyl)-7-(t-butyl)pyrazolo[3,4-d]pyrimidine; Alexis Biochemicals) is added (final concentration 1.2 μM) and incubated for further 10 min. […] After 1 hour incubation at room temperature fluorescence is measured, e.g., on the Victor2 Multilabel Counter (Wallac) at 665 nm. […] The inhibition obtained in the presence of test compounds was calculated as percent inhibition of the high control. […]

[4] = tested on: Mouse mammary carcinoma 4T1 cells; assay: Anchorage-independent tumor cell growth assay; format: cell-based; conditions: Ultra low Attachment plates, 48 h, read-out: IC50, 50% inhibition of growth
Experimental: Mouse mammary carcinoma 4T1 cells (5×10^3) are plated in 96-well Ultra low Attachment plates (#3474, Corning Inc.) in […] of Dulbecco's modified eagle medium containing 10% FBS. Cells are cultured for 2 h and inhibitors are added at various concentrations in a final concentration of 0.1% DMSO. After 48 h, cell growth is assayed with the cell counting kit-8 (Wako Pure Chemical), which uses a water soluble tetrazolium salt WST8. Twenty μL of the reagent is added into each well and cells are further cultured for 2 h. The optical density is measured at 450 nm. The concentration of compound causing 50% inhibition of growth may thus be determined.

T3 sequence (Q05397 384-706): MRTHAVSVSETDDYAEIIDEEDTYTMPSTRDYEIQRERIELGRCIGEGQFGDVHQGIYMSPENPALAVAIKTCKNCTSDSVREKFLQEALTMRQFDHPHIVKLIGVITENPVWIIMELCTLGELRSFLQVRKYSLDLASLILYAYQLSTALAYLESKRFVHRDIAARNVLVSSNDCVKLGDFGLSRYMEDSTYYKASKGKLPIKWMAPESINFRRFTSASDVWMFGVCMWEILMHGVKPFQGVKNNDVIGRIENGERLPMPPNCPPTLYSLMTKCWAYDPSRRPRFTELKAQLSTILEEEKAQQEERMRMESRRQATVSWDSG
T2 sequence (P34152 whole entry): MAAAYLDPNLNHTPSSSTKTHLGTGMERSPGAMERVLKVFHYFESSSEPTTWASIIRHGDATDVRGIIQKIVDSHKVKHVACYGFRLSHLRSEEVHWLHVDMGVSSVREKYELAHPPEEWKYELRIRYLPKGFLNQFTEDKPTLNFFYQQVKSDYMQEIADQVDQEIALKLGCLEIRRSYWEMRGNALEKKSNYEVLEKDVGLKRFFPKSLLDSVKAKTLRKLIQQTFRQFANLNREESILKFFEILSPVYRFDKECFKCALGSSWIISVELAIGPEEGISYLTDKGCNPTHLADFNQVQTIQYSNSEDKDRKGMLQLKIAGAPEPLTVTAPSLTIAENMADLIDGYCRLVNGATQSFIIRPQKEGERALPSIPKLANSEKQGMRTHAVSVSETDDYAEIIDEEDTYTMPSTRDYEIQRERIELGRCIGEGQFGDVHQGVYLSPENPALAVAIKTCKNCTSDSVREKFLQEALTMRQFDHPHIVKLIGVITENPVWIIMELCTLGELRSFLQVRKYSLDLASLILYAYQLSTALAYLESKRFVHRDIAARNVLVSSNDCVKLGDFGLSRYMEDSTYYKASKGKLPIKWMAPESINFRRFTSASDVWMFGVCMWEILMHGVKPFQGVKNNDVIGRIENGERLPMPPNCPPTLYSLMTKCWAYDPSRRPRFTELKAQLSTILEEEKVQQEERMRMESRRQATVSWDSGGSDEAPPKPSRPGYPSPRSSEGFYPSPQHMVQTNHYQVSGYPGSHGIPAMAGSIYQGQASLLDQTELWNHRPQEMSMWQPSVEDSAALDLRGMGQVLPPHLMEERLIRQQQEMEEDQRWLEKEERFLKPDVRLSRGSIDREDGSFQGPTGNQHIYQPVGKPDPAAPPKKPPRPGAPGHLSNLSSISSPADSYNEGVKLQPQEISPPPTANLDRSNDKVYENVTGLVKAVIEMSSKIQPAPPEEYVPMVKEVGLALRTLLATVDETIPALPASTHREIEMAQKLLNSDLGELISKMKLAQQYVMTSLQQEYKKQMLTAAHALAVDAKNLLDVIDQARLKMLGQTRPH

IC50 (FAK): 43 nM
SMILES: CNS(=O)(=O)c1ccccc1Nc1nc(Nc2ccc3cn[nH]c3c2)ncc1Br [Example 198]

IC50 [2]: 15 nM
SMILES: CNS(=O)(=O)c1ccccc1Nc1nc(Nc2cccc(C)c2)ncc1Br [Example 188]

melting point: 72 to 75 °C
SMILES: COc1cc(Nc2nccc(Nc3cccc(C)c3S(N)(=O)=O)n2)cc(OC)c1OC [Example 3, 2-methyl-6-[2-(3,4,5-Trimethoxy-phenylamino)-pyrimidin-4-ylamino]-benzenesulfonamide]

IC50 [3]: 12 nM
SMILES: COc1cc(Nc2nccc(Nc3cccc(OC)c3S(N)(=O)=O)n2)cc(OC)c1OC [Example 4, 2-Methoxy-6-[2-(3,4,5-trimethoxy-phenylamino)-pyrimidin-4-ylamino]-benzenesulfonamide]

IC50 (FAK): 440 nM
SMILES: CNS(=O)(=O)c1cc(F)ccc1Nc1nc(Nc2cc(OC)c(OC)c(OC)c2)ncc1Br [Example 190]

Second part, the compound before the results:

SMILES: Cc1cccc(Nc2ccnc(Nc3cccc(OCCn4ccnc4)c3)n2)c1S(N)(=O)=O [Example 128]
IC50 [1]: 150 nM

SMILES: CNS(=O)(=O)c1ccccc1Nc1nc(Nc2cc(OC)c(OC)c(OC)c2)ncc1C(F)(F)F [Example 208]
IC50 [2]: 1 nM

SMILES: CNS(=O)(=O)c1ccccc1Nc1nc(Nc2cc(OC)c(OC)c(OC)c2)ncc1Cl [Example 213]
IC50 [4]: 16 nM
